Source: patent US6858580B2, “Mixtures of drug-oligomer conjugates comprising polyalkylene glycol, uses thereof, and methods of making same” (Nobex Corporation, priority 2001, dated 2005)

Experiments:
[1] = Enzymatic stability: chymotrypsin digest of calcitonin-oligomer conjugates; type: in vitro ADME
Protocol: Compounds, supplied as lyophilized powders, are resuspended in 10 mM phosphate buffer pH 7.4 and then submitted for concentration determination by HPLC. The phosphate buffer is used to create a solution with a pH that is optimum for activity of each particular gut enzyme. Aliquots of the compound thus prepared are transferred to 1.7 mL microcentrifuge tubes and shaken in a 37° C. water bath for 15 minutes to allow compounds to equilibrate to temperature. After 15 minutes, 2 μL of the appropriate concentrated gut enzyme is added to each tube to achieve the final concentration desired. Chymotrypsin and trypsin are resuspended in 1 mM HCl. Also, as a control, compounds are treated with 2 μL of 1 mM HCl. Immediately following additions, 100 μL of sample is removed from the control tube and quenched with either 25 μL of chymotrypsin/trypsin quenching solution (1:1 1% TFA:Isopropanol). This sample will serve as T=0 min. A sampling procedure is repeated at various time intervals depending on the gut enzyme used. […] Trypsin has 30, 60, 120 and 180 minute samples. Once all points have been acquired, a final sample is removed from the control tube to make sure that observed degradation is not temperature or buffer related. […] RP-BPLC (acetonitrile gradient) is used to determine AUC for each sample and % degradation is calculated based from the T=0 min control. […]

[2] = test system: Male CF-1 mice; experiment: Serum calcium lowering after single oral dose in fasted mice; type: in vivo; conditions: single oral dose 2.0 μg/kg, average serum calcium
Protocol: Male CF-1 mice (Charles River, Raleigh, N.C.) weighing […] were housed in the Nobex vivarium in a light—(L:D cycle of 12:12, lights on at 0600 h), temperature—(21-23° C.), and humidity—(40-60% relative humidity) controlled room. Animals were permitted free access to laboratory chow (PMI Nutrition) and tap water. Mice were allowed to acclimate to housing conditions for 48-72 hours prior to the day of experiment.
Prior to dosing, mice were fasted overnight and water was provided ad libitum. Mice were randomly distributed into groups of five animals per time point and were administered a single oral dose of a PEG7-octyl-sCT, diconjugate (Octyl Di) according to the present invention or salmon calcitonin (sCT or Calcitonin) for comparison purposes. […]
At appropriate time points, mice were ether-anesthetized, the vena cavae exteriorized, and blood samples were obtained via a syringe fitted with a 25-gauge needle. […] Total serum calcium was determined for each animal using a calibrated Vitros DT60 II analyzer.
Serum calcium data were plotted and pharmacokinetic parameters determined via curve-fitting techniques using SigmaPlot software Version 4.1). Means and standard deviations (or standard errors) were calculated and plotted to determine effect differences among dosing groups.

[3] = Enzymatic stability: trypsin digest of calcitonin-oligomer conjugates; type: in vitro ADME; conditions: 10 mM phosphate buffer, control tube without enzyme, pH 7.4, Control tube (1 mM HCl, no enzyme)
Protocol: Compounds, supplied as lyophilized powders, are resuspended in 10 mM phosphate buffer pH 7.4 and then submitted for concentration determination by HPLC. The phosphate buffer is used to create a solution with a pH that is optimum for activity of each particular gut enzyme. Aliquots of the compound thus prepared are transferred to 1.7 mL microcentrifuge tubes and shaken in a 37° C. water bath for 15 minutes to allow compounds to equilibrate to temperature. After 15 minutes, 2 μL of the appropriate concentrated gut enzyme is added to each tube to achieve the final concentration desired. Chymotrypsin and trypsin are resuspended in 1 mM HCl. Also, as a control, compounds are treated with 2 μL of 1 mM HCl. Immediately following additions, 100 μL of sample is removed from the control tube and quenched with either 25 μL of chymotrypsin/trypsin quenching solution (1:1 1% TFA:Isopropanol). This sample will serve as T=0 min. A sampling procedure is repeated at various time intervals depending on the gut enzyme used. Chymotrypsin has 15, 30 and 60 minute samples. Trypsin has 30, 60, 120 and 180 minute samples. Once all points have been acquired, a final sample is removed from the control tube to make sure that observed degradation is not temperature or buffer related. The chymotrypsin and trypsin samples may be collected directly into HPLC vials. RP-BPLC (acetonitrile gradient) is used to determine AUC for each sample and % degradation is calculated based from the T=0 min control. The results are provided below in Tables 1 to 4.

[4] = test system: normal fasted beagle dogs; experiment: Activity and inter-subject variability, oral liquid formulation, fasted beagle dogs; type: in vivo; conditions: 0.25 mg/kg oral liquid, fasted beagles, blood glucose
Excerpt: As yet another example, a substantially monodispersed mixture of drug-oligomer conjugates preferably has an inter-subject variability that is less than the inter-subject variability of a polydispersed mixture of drug-oligomer conjugates having the same number average molecular weight as the substantially monodispersed mixture. As will be understood by those skilled in the art, the number average molecular weight of the substantially monodispersed mixture and the number average weight of the polydispersed mixture may be measured by various methods including, but not limited to, size exclusion chromatography. The inter-subject variability may be measured by various methods as will be understood by those skilled in the art. The inter-subject variability is preferably calculated as follows. The area under a dose response curve (AUC) (i.e., the area between the dose-response curve and a baseline value) is determined for each subject. The average AUC for all subjects is determined by summing the AUCs of each subject and dividing the sum by the number of subjects. The absolute value of the difference between the subject's AUC and the average AUC is then determined for each subject. The absolute values of the differences obtained are then summed to give a value that represents the inter-subject variability. Lower values represent lower inter-subject variabilities and higher values represent higher inter-subject variabilities.
An effective animal model for evaluating formulations uses normal fasted beagle dogs. These dogs are given 0.25 mg/kg of insulin conjugates to evaluate the efficacy of various formulations.
The protocol for dog experiments calls for a blood glucose measurement at time zero just before a drug is administered. The oral liquid dosage formulation is then squirted into the back of the dog's mouth. In each case, the dogs received 0.25 mg/kg of this solution. Blood is drawn at 15, 30, 60 and 120 minutes and glucose levels are measured and graphed. The lower the glucose levels, the better the activity of the insulin conjugate.

Molecule	activity (glucose lowering) versus polydispersed PEG7AVG-hexyl-insulin, monoconjugate [4]	inter-subject variability versus polydispersed PEG7AVG-hexyl-insulin, monoconjugate [4]	further results
COCCOCCOCCOCCOCCOCCOCCOCCCCCCCC(=O)NCCCC[C@H](NC(=O)CNC(=O)[C@H](CC(C)C)NC(=O)[C@@H](NC(=O)[C@@H]1CSSC[C@H](N)C(=O)N[C@@H](CO)C(=O)N[C@@H](CC(N)=O)C(=O)N[C@@H](CC(C)C)C(=O)N[C@@H](CO)C(=O)N[C@@H]([C@@H](C)O)C(=O)N1)C(C)C)C(=O)N[C@@H](CC(C)C)C(=O)N[C@@H](CO)C(=O)N[C@@H](CCC(N)=O)C(=O)N[C@@H](CCC(=O)O)C(=O)N[C@@H](CC(C)C)C(=O)N[C@@H](Cc1c[nH]cn1)C(=O)N[C@@H](CCCCNC(=O)CCCCCCCOCCOCCOCCOCCOCCOCCOCCOC)C(=O)N[C@@H](CC(C)C)C(=O)N[C@@H](CCC(N)=O)C(=O)N[C@H](C(=O)N[C@@H](Cc1ccc(O)cc1)C(=O)N1CCC[C@H]1C(=O)N[C@@H](CCCNC(=N)N)C(=O)N[C@H](C(=O)N[C@@H](CC(N)=O)C(=O)N[C@H](C(=O)NCC(=O)N[C@@H](CO)C(=O)NCC(=O)N[C@H](C(=O)N1CCC[C@H]1C(N)=O)[C@@H](C)O)[C@@H](C)O)[C@@H](C)O)[C@@H](C)O	–	–	remaining at 1 h ([1]; 10 mM phosphate buffer, control tube without enzyme, pH 7.4, Control tube (1 mM HCl, no enzyme), Non-Formulated, time 60 min): 104%; % Baseline Calcium Drop at 2.0 μg/kg dose [2]: 21.0%; remaining at 1 h ([3]; time 60 min): 103%; remaining at 2 h ([3]; time 120 min): 106%; remaining at 3 h ([3]; time 180 min): 104%
PEG10-hexyl-insulin, monoconjugate: non-polydispersed mixture of mPEG10-hexyl-insulin, B29 monoconjugates	higher activity	less inter-subject variability	–
PEG7-hexyl-insulin, monoconjugate: human insulin monoconjugated at the B29 position with the activated oligomer of Example 18	higher activity	less inter-subject variability	–
CC(C)C[C@H](NC(=O)[C@H](CCCCN)NC(=O)CNC(=O)[C@H](CC(C)C)NC(=O)[C@@H](NC(=O)[C@@H]1CSSC[C@H](N)C(=O)N[C@@H](CO)C(=O)N[C@@H](CC(N)=O)C(=O)N[C@@H](CC(C)C)C(=O)N[C@@H](CO)C(=O)N[C@@H]([C@@H](C)O)C(=O)N1)C(C)C)C(=O)N[C@@H](CO)C(=O)N[C@@H](CCC(N)=O)C(=O)N[C@@H](CCC(=O)O)C(=O)N[C@@H](CC(C)C)C(=O)N[C@@H](Cc1c[nH]cn1)C(=O)N[C@@H](CCCCN)C(=O)N[C@@H](CC(C)C)C(=O)N[C@@H](CCC(N)=O)C(=O)N[C@H](C(=O)N[C@@H](Cc1ccc(O)cc1)C(=O)N1CCC[C@H]1C(=O)N[C@@H](CCCNC(=N)N)C(=O)N[C@H](C(=O)N[C@@H](CC(N)=O)C(=O)N[C@H](C(=O)NCC(=O)N[C@@H](CO)C(=O)NCC(=O)N[C@H](C(=O)N1CCC[C@H]1C(N)=O)[C@@H](C)O)[C@@H](C)O)[C@@H](C)O)[C@@H](C)O [Salmon Calcitonin, salmon calcitonin, reference compound]	–	–	remaining at 10 min ([1]; chymotrypsin (0.5 U/mL) in phosphate buffer, pH 7.4, Non-Formulated, time 10 min, pH 7.4, 37° C., read-out: % Remaining Following 0.5 U/mL Chymotrypsin Digest): 73%
PEG4-hexyl-insulin, monoconjugate: non-polydispersed mixture of mPEG4-hexyl-insulin, B29 monoconjugates	higher activity	less inter-subject variability	–
